Reference: US20120022054A1, “NOVEL SUBSTITUTED ARYL DERIVATIVES, THEIR PROCESS OF PREPARATION AND THEIR THERAPEUTICAL USES AS ANTI-HIV AGENTS” (priority 2008, published 2012)
Like-named read-outs stand apart in the source and are kept apart here.

Legend:
[1] = test system: Env-deleted NL4-3 vector virus pseudotyped with the VSV g envelope; experiment: microbe, parasite or virus in culture; format: cell-based, HIV-1; details: Vesicular stomatitis virus, NL43, SUP-T1, 48 h, read-out: EC50 for antiviral activity (50% inhibition of luciferase activity)
NL4-3 strain of HIV-1 = experiment: Multiple cycle infection assay of CAp24 antigen production; format: cell-based; details: Human immunodeficiency virus 1, NL43, SUP-T1, 96 h, multiple cycle infection with NL4-3 virus, SupT1, MT4 or PBMC, MOI 0.01, day 4 and day −6 post-infection, read-out: EC50 for antiviral activity (50% inhibition of CA p24 production)

| SMILES | EC50 [1] [µM] | EC50 (NL4-3 strain of HIV-1; threshold below 5 μM) [µM] | EC50 (NL4-3 strain of HIV-1; threshold below 500 nM) [µM] |
| --- | --- | --- | --- |
| CN(Cc1ccccc1Cl)C(=O)CCCSc1ccc(O)cc1 [Example 3, N-(2-Chlorobenzyl)-4-[(4-hydroxyphenyl)thio]-N-methylbutanamide] | < 5 | < 5 |  |
| CN(C(=O)CCCSc1ccc(O)cc1)C(c1ccccc1)c1ccccc1 [Example 10, N-Benzhydryl-4-[(4-hydroxyphenyl)thio]-N-methylbutanamide] | < 5 | < 5 |  |
| CN(Cc1ccccc1N1CCOCC1)C(=O)CCCSc1ccc(O)cc1 [Example 11, 4-[(4-Hydroxyphenyl)thio]-N-methyl-N-(2-morpholin-4-ylbenzyl)butanamide] | < 5 | < 5 |  |
| COc1ccccc1CN(C)C(=O)CCCCSc1ccc(O)cc1 [Example 12, 5-[(4-Hydroxyphenyl)thio]-N-(2-methoxybenzyl)-N-methylpentanamide] | < 5 | < 5 |  |
| CN1CCN(c2ccccc2CN(C)C(=O)CCCSc2ccc(O)cc2)CC1 [Example 13, 4-[(4-Hydroxyphenyl)thio]-N-methyl-N-[2-(4-methylpiperazin-1-yl)benzyl]-butanamide] | < 5 | < 5 |  |
| CN(Cc1ccccc1Cl)C(=O)CCCSc1ccc(F)cc1 [Example 14, N-(2-Chlorobenzyl)-4-[(4-fluorophenyl)thio]-N-methylbutanamide] | < 5 | < 5 |  |
| COc1ccc(Cl)cc1CN(C)C(=O)CCCSc1ccc(O)cc1 [Example 70, N-(5-Chloro-2-methoxybenzyl)-4-[(4-hydroxyphenyl)thio]-N-methylbutanamide] |  | < 5 | < 0.5 |
| COc1ccc(F)cc1CN(C)C(=O)CCCSc1ccc(O)cc1 [Example 71, N-(5-Fluoro-2-methoxybenzyl)-4-[(4-hydroxyphenyl)thio]-N-methylbutanamide] |  | < 5 | < 0.5 |
| COc1ccc(F)cc1CN(C)C(=O)CCCSc1ccc(F)cc1 [Example 84, N-(5-Fluoro-2-methoxybenzyl)-4-[(4-fluorophenyl)thio]-N-methylbutanamide] |  | < 5 | < 0.5 |
| CC(C)Oc1ccc(F)cc1CN(C)C(=O)CCCSc1ccc(F)cc1 [Example 85, N-(5-Fluoro-2-isopropoxybenzyl)-4-[(4-fluorophenyl)thio]-N-methylbutanamide] |  | < 5 | < 0.5 |
| COc1ccc(F)cc1CN(C)C(=O)CCC[S+]([O-])c1ccc(O)cc1 (stereo not shown) [Example 103, N-(5-fluoro-2-methoxybenzyl)-4-[(4-hydroxyphenyl)sulfinyl]-N-methylbutanamide] |  | < 5 | < 0.5 |
| COc1ccc([S+]([O-])CCCC(=O)N(C)Cc2cc(F)ccc2OC)cc1 (stereo not shown) [Example 104, N-(5-fluoro-2-methoxybenzyl)-4-[(4-methoxyphenyl)sulfinyl]-N-methylbutanamide] |  | < 5 | < 0.5 |
| COc1ccc(F)cc1CN(C)C(=O)CCCn1ccc2cc(F)ccc21 [Example 106, 4-(5-fluoro-1H-indol-1-yl)-N-(5-fluoro-2-methoxybenzyl)-N-methylbutanamide] |  | < 5 | < 0.5 |
| COc1ccc(F)cc1CN(C)C(=O)CCCn1ccc2cc(Cl)ccc21 [Example 107, 4-(5-chloro-1H-indol-1-yl)-N-(5-fluoro-2-methoxybenzyl)-N-methylbutanamide] |  | < 5 | < 0.5 |
| COc1ccc(F)cc1CN(C)C(=O)CCCn1ccc2cc(Br)ccc21 [Example 108, 4-(5-bromo-1H-indol-1-yl)-N-(5-fluoro-2-methoxybenzyl)-N-methylbutanamide] |  | < 5 | < 0.5 |
| COc1ccc(Cl)cc1CN(C)C(=O)CCCSc1ccc(OC(C)C)cc1 [Example 113, N-(5-chloro-2-methoxybenzyl)-4-[(4-isopropoxyphenyl)thio]-N-methylbutanamide] |  | < 5 | < 0.5 |
| COc1ccc([S+]([O-])CCCC(=O)N(C)Cc2cc(Cl)ccc2OC)cc1 (stereo not shown) [Example 116, N-(5-chloro-2-methoxybenzyl)-4-[(4-methoxyphenyl)sulfinyl]-N-methylbutanamide] |  | < 5 | < 0.5 |
| COc1ccc([S+]([O-])CCCC(=O)N(C)Cc2cc(F)ccc2OC(C)C)cc1 (stereo not shown) [Example 118, N-(5-fluoro-2-isopropoxybenzyl)-4-[(4-methoxyphenyl)sulfinyl]-N-methylbutanamide] |  | < 5 | < 0.5 |
| COc1ccc(C)cc1CN(C)C(=O)CCCn1ccc2cc(F)ccc21 [Example 120, 4-(5-fluoro-1H-indol-1-yl)-N-(2-methoxy-5-methylbenzyl)-N-methylbutanamide] |  | < 5 | < 0.5 |
| CN(C(=O)CCCn1ccc2cc(F)ccc21)c1cccc2ccccc12 [Example 123, 4-(5-fluoro-1H-indol-1-yl)-N-methyl-N-1-naphthylbutanamide] |  | < 5 | < 0.5 |

| SMILES | EC50 [1] [µM] | EC50 (NL4-3 strain of HIV-1; threshold below 5 μM) [µM] | EC50 (NL4-3 strain of HIV-1; threshold below 500 nM) [µM] |
| --- | --- | --- | --- |
| COc1ccc(C(=O)CCCC(=O)N(C)Cc2cc(Cl)ccc2OC)cc1 [Example 125, N-(5-chloro-2-methoxybenzyl)-5-(4-methoxyphenyl)-N-methyl-5-oxopentanamide] |  | < 5 | < 0.5 |
| CN(C(=O)CCCSc1ccc(F)cc1)c1nccc2ccccc12 [Example 128, 4-[(4-fluorophenyl)thio]-N-isoquinolin-1-yl-N-methylbutanamide] |  | < 5 | < 0.5 |
| CN(C(=O)CCC[S+]([O-])c1ccc(F)cc1)c1nccc2ccccc12 (stereo not shown) [Example 129, 4-[(4-fluorophenyl)sulfinyl]-N-isoquinolin-1-yl-N-methylbutanamide] |  | < 5 | < 0.5 |
| CN(C(=O)CCCSc1ccc(F)cc1)c1cccc2cccnc12 [Example 130, 4-[(4-fluorophenyl)thio]-N-methyl-N-quinolin-8-ylbutanamide] |  | < 5 | < 0.5 |
| COc1ccc(SCCCC(=O)N(C)c2nccc3ccccc23)cc1 [Example 132, N-isoquinolin-1-yl-4-[(4-methoxyphenyl)thio]-N-methylbutanamide] |  | < 5 | < 0.5 |
| COc1ccc(F)cc1CN(C)C(=O)CCCSc1ccc(Br)cc1 [Example 145, 4-[(4-Bromophenyl)thio]-N-(5-fluoro-2-methoxybenzyl)-N-methylbutanamide] |  | < 5 | < 0.5 |
| CN(Cc1ccccc1N1CCNCC1)C(=O)CCCSc1ccc(O)cc1 [Example 162, 4-[(4-Hydroxyphenyl)thio]-N-methyl-N-(2-piperazin-1-ylbenzyl)butanamide] |  | < 5 | < 0.5 |
| CN(C(=O)CCCSc1ccc(F)cc1)c1cccc2ccccc12 [Example 169, 4-[(4-Fluorophenyl)thio]-N-methyl-N-1-naphthylbutanamide] |  | < 5 | < 0.5 |
| COc1ccc(F)cc1CN(C)C(=O)CCCn1cc(-c2ccc(F)cc2)cn1 [Example 170, N-(5-Fluoro-2-methoxybenzyl)-4-[4-(4-fluorophenyl)pyrazol-1-yl]-N-methylbutanamide] |  | < 5 | < 0.5 |
| COc1ccc(F)cc1CN(C)C(=O)CCCn1cc(-c2ccc(F)cc2)c(C)n1 [Example 171, N-(5-Fluoro-2-methoxybenzyl)-4-[4-(4-fluorophenyl)-3-methylpyrazol-1-yl]-N-methylbutanamide] |  | < 5 | < 0.5 |
| COc1ccc(Cl)cc1CN(C)C(=O)CCCn1cc(-c2ccc(F)cc2)cn1 [Example 173, N-(5-Chloro-2-methoxybenzyl)-4-[4-(4-fluorophenyl)pyrazol-1-yl]-N-methylbutanamide] |  | < 5 | < 0.5 |
| COc1ccc(-c2cnn(CCCC(=O)N(C)Cc3cc(F)ccc3OC)c2)cc1 [Example 174, N-(5-Fluoro-2-methoxybenzyl)-4-[4-(4-methoxyphenyl)pyrazol-1-yl]-N-methylbutanamide] |  | < 5 | < 0.5 |
| COc1ccc(F)cc1CN(C)C(=O)CCCn1cc(-c2ccc(F)cc2C)cn1 [Example 175, N-(5-Fluoro-2-methoxybenzyl)-4-[4-(4-fluoro-2-methylphenyl)pyrazol-1-yl]-N-methylbutanamide] |  | < 5 | < 0.5 |
| COc1ccc(F)cc1CN(C)C(=O)CCCn1cc(-c2ccc(O)cc2)cn1 [Example 176, N-(5-Fluoro-2-methoxybenzyl)-4-[4-(4-hydroxyphenyl)pyrazol-1-yl]-N-methylbutanamide] |  | < 5 | < 0.5 |
| COc1ccc(F)cc1CN(C)C(=O)CCCn1cc(-c2ccc(C#N)cc2)cn1 [Example 177, N-(5-Fluoro-2-methoxybenzyl)-4-[4-(4-cyanophenyl)pyrazol-1-yl]-N-methylbutanamide] |  | < 5 | < 0.5 |
| COc1ccc(F)cc1CN(C)C(=O)CCCn1cc(-c2ccncc2)cn1 [Example 178, N-(5-Fluoro-2-methoxybenzyl)-4-(4-pyridin-4-yl-pyrazol-1-yl)-N-methylbutanamide] |  | < 5 | < 0.5 |
| COc1ccc(-c2cnc(CCCC(=O)N(C)Cc3cc(F)ccc3OC)o2)cc1 [Example 180, N-(5-Fluoro-2-methoxybenzyl)-4-[5-(4-methoxyphenyl)oxazol-2-yl]-N-methylbutanamide] |  | < 5 | < 0.5 |
| CCOC(=O)c1cc(F)ccc1[S+]([O-])CCCC(=O)N1CCc2ccc(OC)cc21 (stereo not shown) [Example 191, Ethyl 5-fluoro-2-((4-(6-methoxy-2,3-dihydro-1H-indol-1-yl)-4-oxobutyl)sulfinyl)benzoate] |  | < 5 |  |
| CCOC(=O)c1cc(F)ccc1SCCCC(=O)N(C)c1cccc(OC)c1 [Example 195, Ethyl 5-fluoro-2-({4-[(3-methoxyphenyl)(methyl)amino]-4-oxobutyl}thio)benzoate] | < 5 |  |  |
